According to patent US20120264735A1 (priority 2009, published 2012):

Target: T1, c-Met kinase (recombinant c-Met) (Homo sapiens, UniProt P08581)
T1 construct: 0.27 nM recombinant c-Met
Experiment: In vitro kinase assay I (homogeneous time-resolved fluorescence tyrosine kinase assay)
Assay type: biochemical
Experimental: The kinase activities of c-Met are measured using a modified version of the homogeneous-time-resolved tyrosine kinase assay described by Park et al. (1999, Anal. Biochem. 269:94-104).
The procedure for determining the potency of a compound to inhibit c-Met kinase comprises the following steps: • 1. Prepare 3-fold serial diluted compound solutions in 100% dimethyl sulfoxide (DMSO) at 20× of the desired final concentrations in a 384-well plate. • 2. Prepare a master reaction mix containing 6.67 mM MgCl2, 133.3 mM NaCl, 66.7 mM Tris-HCl (pH 7.4), 0.13 mg/ml BSA, 2.67 mM dithiothreitol, 0.27 nM recombinant c-Met and 666.7 nM biotinylated synthetic peptide substrate (biotin-ahx-EQEDEPEGDYFEWLE-CONH2) (SEQ.ID.NO.:1). • 3. In a black assay plate, add 1.5 μl of compound solution (or DMSO) and 22.5 μl of master reaction mix per well. Initiate the kinase reaction by adding 6 μl of 0.25 mM MgATP per well. Allow the reactions to proceed for 60 min at room temperature. The final conditions for the reaction are 0.2 nM c-Met, 0.5 μM substrate, 50 μM MgATP, 5 mM MgCl2, 100 mM NaCl, 2 mM DTT, 0.1 mg/ml BSA, 50 mM Tris (pH 7.4) and 5% DMSO. • 4. Stop the kinase reaction with 30 μl of Stop/Detection buffer containing 10 mM EDTA, 25 mM HEPES, 0.1% TRITON X-100, 0.750 nM Eu-chelate labeled anti-phosphotyrosine antibody PY20 (cat. #AD0067, PerkinElmer) and 50 μg/ml Streptavidin-allophycocyanin conjugate (cat. #PJ25S, Prozyme). • 5. Read HTRF signals on a Victor reader (PerkinElmer) in HTRF mode after 60-min incubation at room temperature in the dark. • 6. IC50 is determined by fitting the observed relationship between compound concentration and HTRF signal with a 4-parameter logistic equation. II. GTL-16 pY1349 Cell-Based Assay

T1 sequence (P08581 25-1390): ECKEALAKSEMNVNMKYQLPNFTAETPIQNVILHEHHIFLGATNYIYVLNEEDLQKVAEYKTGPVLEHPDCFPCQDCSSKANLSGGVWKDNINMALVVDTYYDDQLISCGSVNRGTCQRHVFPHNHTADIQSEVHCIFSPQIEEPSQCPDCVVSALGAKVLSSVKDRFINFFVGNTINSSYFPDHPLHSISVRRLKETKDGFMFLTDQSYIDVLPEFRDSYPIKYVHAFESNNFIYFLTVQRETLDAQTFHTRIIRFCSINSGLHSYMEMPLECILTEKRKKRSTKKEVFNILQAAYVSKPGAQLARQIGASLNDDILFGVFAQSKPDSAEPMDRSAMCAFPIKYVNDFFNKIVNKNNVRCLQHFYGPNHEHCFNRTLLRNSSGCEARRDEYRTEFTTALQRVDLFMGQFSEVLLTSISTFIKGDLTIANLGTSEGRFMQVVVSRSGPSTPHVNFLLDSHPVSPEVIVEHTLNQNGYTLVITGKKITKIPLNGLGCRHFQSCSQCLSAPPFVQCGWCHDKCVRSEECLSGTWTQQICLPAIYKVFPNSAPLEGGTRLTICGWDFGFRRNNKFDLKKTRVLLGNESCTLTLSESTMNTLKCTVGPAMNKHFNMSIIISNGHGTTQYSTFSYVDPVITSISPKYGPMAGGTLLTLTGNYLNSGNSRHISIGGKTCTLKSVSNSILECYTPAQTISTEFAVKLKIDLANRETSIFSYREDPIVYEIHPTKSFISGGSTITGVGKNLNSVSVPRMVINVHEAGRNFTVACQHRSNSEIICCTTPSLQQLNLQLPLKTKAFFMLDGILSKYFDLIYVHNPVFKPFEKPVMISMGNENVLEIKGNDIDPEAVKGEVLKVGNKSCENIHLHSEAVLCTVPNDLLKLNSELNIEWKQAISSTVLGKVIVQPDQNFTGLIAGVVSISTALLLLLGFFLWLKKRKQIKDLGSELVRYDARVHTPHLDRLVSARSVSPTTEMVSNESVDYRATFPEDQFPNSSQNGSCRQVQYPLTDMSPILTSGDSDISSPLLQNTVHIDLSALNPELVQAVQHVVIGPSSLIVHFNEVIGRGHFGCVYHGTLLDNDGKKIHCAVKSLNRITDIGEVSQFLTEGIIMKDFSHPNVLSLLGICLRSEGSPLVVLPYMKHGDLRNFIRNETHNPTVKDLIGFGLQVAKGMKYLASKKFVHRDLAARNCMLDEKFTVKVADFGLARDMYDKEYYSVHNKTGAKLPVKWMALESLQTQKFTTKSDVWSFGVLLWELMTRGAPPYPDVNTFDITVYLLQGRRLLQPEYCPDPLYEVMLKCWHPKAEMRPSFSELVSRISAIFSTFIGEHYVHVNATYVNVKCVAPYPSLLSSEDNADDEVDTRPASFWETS

O=C(Nc1cccc(Cc2nn(-c3cc(F)c(F)c(F)c3)ccc2=O)c1)OCC1COCCO1 (racemic) [Example 513, rac-1,4-dioxan-2-ylmethyl (3-{[4-oxo-1-(3,4,5-trifluorophenyl)-1,4-dihydropyridazin-3-yl]methyl}phenyl)carbamate]
IC50: < 100 nM

O=C(Nc1cccc(Cc2nn(-c3cc(F)cc(F)c3)ccc2=O)c1)OCC1COCCO1 (racemic) [Example 520, rac-1,4-dioxan-2-ylmethyl (3-{[1-(3,5-difluorophenyl)-4-oxo-1,4-dihydropyridazin-3-yl]methyl}phenyl)carbamate]
IC50: < 100 nM

Cn1cc(-n2ccc(=O)c(Cc3cccc(NC(=O)OCC4CCOC4)c3)n2)cn1 (racemic) [Example 542, rac-tetrahydrofuran-3-ylmethyl (3-{[1-(1-methyl-1H-pyrazol-4-yl)-4-oxo-1,4-dihydropyridazin-3-yl]methyl}phenyl)carbamate]
IC50: < 100 nM

O=C(Nc1cccc(Cc2nn(-c3cc(F)c(F)c(F)c3)ccc2=O)c1)OCC1CCOC1 (racemic) [Example 559, rac-tetrahydrofuran-3-ylmethyl (3-{[4-oxo-1-(3,4,5-trifluorophenyl)-1,4-dihydropyridazin-3-yl]methyl}phenyl)carbamate]
IC50: < 100 nM

Cn1cc(-n2ccc(=O)c(Cc3cccc(NC(=O)OCC4CCCO4)c3)n2)cn1 (racemic) [Example 562, rac-tetrahydrofuran-2-ylmethyl (3-{[1-(1-methyl-1H-pyrazol-4-yl)-4-oxo-1,4-dihydropyridazin-3-yl]methyl}phenyl)carbamate]
IC50: < 100 nM

Cn1cc(-n2ccc(=O)c(Cc3cccc(NC(=O)OCC4CCCCO4)c3)n2)cn1 (racemic) [Example 563, rac-tetrahydro-2H-pyran-2-ylmethyl (3-{[1-(1-methyl-1H-pyrazol-4-yl)-4-oxo-1,4-dihydropyridazin-3-yl]methyl}phenyl)carbamate]
IC50: < 100 nM

Cn1cc(-n2ccc(=O)c(Cc3cccc(NC(=O)OCC4COCCO4)c3)n2)cn1 (racemic) [Example 568, rac-1,4-dioxan-2-ylmethyl (3-{[1-(1-methyl-1H-pyrazol-4-yl)-4-oxo-1,4-dihydropyridazin-3-yl]methyl}phenyl)carbamate]
IC50: < 100 nM

Cn1cc(-n2ccc(=O)c(Cc3cccc(NC(=O)OCC4CCCOC4)c3)n2)cn1 (racemic) [Example 569, rac-tetrahydro-2H-pyran-3-ylmethyl (3-{[1-(1-methyl-1H-pyrazol-4-yl)-4-oxo-1,4-dihydropyridazin-3-yl]methyl}phenyl)carbamate]
IC50: < 100 nM

CCC(C)COC(=O)Nc1cccc(Cc2nn(-c3cnn(C)c3)ccc2=O)c1 (racemic) [Example 573, rac-2-methylbutyl (3-{[1-(1-methyl-1H-pyrazol-4-yl)-4-oxo-1,4-dihydropyridazin-3-yl]methyl}phenyl)carbamate]
IC50: < 100 nM

Cn1cc(-n2ccc(=O)c(Cc3cccc(NC(=O)OCC4CCO4)c3)n2)cn1 (racemic) [Example 578, rac-oxetan-2-ylmethyl (3-{[1-(1-methyl-1H-pyrazol-4-yl)-4-oxo-1,4-dihydropyridazin-3-yl]methyl}phenyl)carbamate]
IC50: < 100 nM

CCC(COC(=O)Nc1cccc(Cc2nn(-c3cccc(C#N)c3)ccc2=O)c1)OC (racemic) [Example 581, rac-2-methoxybutyl (3-{[1-(3-cyanophenyl)-4-oxo-1,4-dihydropyridazin-3-yl]methyl}phenyl)carbamate]
IC50: < 100 nM

N#Cc1cccc(-n2ccc(=O)c(Cc3cccc(NC(=O)OCC4CCOC4)c3)n2)c1 (racemic) [Example 583, rac-tetrahydrofuran-3-ylmethyl (3-{[1-(3-cyanophenyl)-4-oxo-1,4-dihydropyridazin-3-yl]methyl}phenyl)carbamate]
IC50: < 100 nM

COCCN1CCC(COC(=O)Nc2cccc(Cc3nn(-c4cccc(C#N)c4)ccc3=O)c2)C1 (racemic) [Example 585, rac-[1-(2-methoxyethyl)pyrrolidin-3-yl]methyl (3-{[1-(3-cyanophenyl)-4-oxo-1,4-dihydropyridazin-3-yl]methyl}phenyl)carbamate]
IC50: < 100 nM

CCC(COC(=O)Nc1cccc(Cc2nn(-c3cc(F)cc(F)c3)ccc2=O)c1)OC (racemic) [Example 591, rac-2-methoxybutyl (3-{[1-(3,5-difluorophenyl)-4-oxo-1,4-dihydropyridazin-3-yl]methyl}phenyl)carbamate]
IC50: < 100 nM

O=C(Nc1cccc(Cc2nn(-c3cc(F)cc(F)c3)ccc2=O)c1)OCC1CCOC1 (racemic) [Example 593, rac-tetrahydrofuran-3-ylmethyl-(3-{[1-(3,5-difluorophenyl)-4-oxo-1,4-dihydropyridazin-3-yl]methyl}phenyl)carbamate]
IC50: < 100 nM

COCCN1CCC(COC(=O)Nc2cccc(Cc3nn(-c4cc(F)cc(F)c4)ccc3=O)c2)C1 (racemic) [Example 594, rac-[1-(2-methoxyethyl)pyrrolidin-3-yl]methyl-(3-{[1-(3,5-difluorophenyl)-4-oxo-1,4-dihydropyridazin-3-yl]methyl}phenyl)carbamate]
IC50: < 100 nM

N#Cc1cccc(-n2ccc(=O)c(Cc3cccc(NC(=O)OCC4COCCO4)c3)n2)c1 (racemic) [Example 601, rac-1,4-dioxan-2-ylmethyl (3-{[1-(3-cyanophenyl)-4-oxo-1,4-dihydropyridazin-3-yl]methyl}phenyl)carbamate]
IC50: < 100 nM

O=C(Nc1cccc(Cc2nn(-c3ccc(F)c(F)c3)ccc2=O)c1)OCC1COCCO1 (racemic) [Example 603, rac-1,4-dioxan-2-ylmethyl (3-{[1-(3,4-difluorophenyl)-4-oxo-1,4-dihydropyridazin-3-yl]methyl}phenyl)carbamate]
IC50: < 100 nM

O=C(Nc1cccc(Cc2nn(-c3cc(F)cc(F)c3)ccc2=O)c1)OCC1CCCOC1 (racemic) [Example 607, rac-tetrahydro-2H-pyran-3-ylmethyl (3-{[1-(3,5-difluorophenyl)-4-oxo-1,4-dihydropyridazin-3-yl]methyl}phenyl)carbamate]
IC50: < 100 nM

Cn1cc(-n2ccc(=O)c(Cc3cccc(NC(=O)OCC4CCOC(C)(C)C4)c3)n2)cn1 (racemic) [Example 611, rac-(2,2-dimethyl-tetrahydro-2H-pyran-4-yl)methyl (3-{[1-(1-methyl-1H-pyrazol-4-yl)-4-oxo-1,4-dihydropyridazin-3-yl]methyl}phenyl)carbamate]
IC50: < 100 nM

Cn1cc(-n2ccc(=O)c(Cc3cccc(NC(=O)OCCC4(O)CCOC(C)(C)C4)c3)n2)cn1 (racemic) [Example 612, rac-2-(4-hydroxy-2,2-dimethyl-tetrahydro-2H-pyran-4-yl)ethyl (3-{[1-(1-methyl-1H-pyrazol-4-yl)-4-oxo-1,4-dihydropyridazin-3-yl]methyl}phenyl)carbamate]
IC50: < 100 nM

Cn1cc(-n2ccc(=O)c(Cc3cccc(NC(=O)OCC(N)C(F)(F)F)c3)n2)cn1 (racemic) [Example 619, rac-2-amino-3,3,3-trifluoropropyl (3-{[1-(1-methyl-1H-pyrazol-4-yl)-4-oxo-1,4-dihydropyridazin-3-yl]methyl}phenyl)carbamate]
IC50: < 100 nM

Cn1cc(-n2ccc(=O)c(Cc3cccc(NC(=O)OCC(F)CN)c3)n2)cn1 (racemic) [Example 621, rac-3-amino-2-fluoropropyl (3-{[1-(1-methyl-1H-pyrazol-4-yl)-4-oxo-1,4-dihydropyridazin-3-yl]methyl}phenyl)carbamate]
IC50: < 100 nM

Cn1cc(-n2ccc(=O)c(Cc3cccc(NC(=O)OCC(F)CN4CCOCC4)c3)n2)cn1 (racemic) [Example 638, rac-2-Fluoro-3-morpholin-4-ylpropyl (3-{[1-(1-methyl-1H-pyrazol-4-yl)-4-oxo-1,4-dihydropyridazin-3-yl]methyl}phenyl)carbamate]
IC50: < 100 nM

CCOC(=O)Nc1cccc(C(F)c2nn(-c3cnn(C)c3)ccc2=O)c1 (racemic) [Example 639, rac-Ethyl(3-{fluoro[1-(1-methyl-1H-pyrazol-4-yl)-4-oxo-1,4-dihydropyridazin-3-yl]methyl}phenyl)carbamate]
IC50: < 100 nM

CCOC(=O)Nc1cccc(C(F)c2nn(-c3ccccc3)ccc2=O)c1 (racemic) [Example 640, rac-Ethyl-{3-[fluoro(4-oxo-1-phenyl-1,4-dihydropyridazin-3-yl)methyl]phenyl}carbamate]
IC50: 100 to 1000 nM

CCOC(=O)Nc1cccc(C(F)c2nn(-c3ccc(Cl)cc3)ccc2=O)c1 (racemic) [Example 641, rac-Ethyl(3-{[1-(4-chlorophenyl)-4-oxo-1,4-dihydropyridazin-3-yl](fluoro)methyl}phenyl)carbamate]
IC50: 100 to 1000 nM

CCOC(=O)Nc1cccc(C(C)c2nn(-c3ccccc3)ccc2=O)c1 (racemic) [Example 651, rac-Ethyl {3-[1-(4-oxo-1-phenyl-1,4-dihydropyridazin-3-yl)ethyl]phenyl}carbamate]
IC50: 100 to 1000 nM
